Here are results for 24 compounds from ChEMBL document CHEMBL5291721, “A preclinical secondary pharmacology resource illuminates target-adverse drug reaction associations of marketed drugs” (Nat Commun, 2023).

The target in experiment [1] is T1, Gamma-aminobutyric acid receptor subunit alpha-1 (Rattus norvegicus, UniProt P62813).
Experiment [2] deals with T2, Alpha-2A adrenergic receptor (Homo sapiens, UniProt P08913).
T2 sequence (P08913 whole entry): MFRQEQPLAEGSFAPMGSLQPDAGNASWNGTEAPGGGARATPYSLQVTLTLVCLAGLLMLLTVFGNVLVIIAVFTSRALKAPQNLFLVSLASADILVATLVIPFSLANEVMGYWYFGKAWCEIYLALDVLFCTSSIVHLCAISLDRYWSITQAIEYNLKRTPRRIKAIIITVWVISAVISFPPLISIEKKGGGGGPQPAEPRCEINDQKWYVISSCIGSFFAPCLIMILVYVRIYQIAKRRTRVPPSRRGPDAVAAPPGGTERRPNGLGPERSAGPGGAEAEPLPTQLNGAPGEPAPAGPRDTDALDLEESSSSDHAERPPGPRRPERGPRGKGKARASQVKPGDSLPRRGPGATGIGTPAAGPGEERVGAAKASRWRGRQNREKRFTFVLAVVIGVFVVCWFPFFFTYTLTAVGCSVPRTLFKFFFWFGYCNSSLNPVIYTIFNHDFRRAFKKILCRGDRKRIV

In the next experiment the target is Histamine H2 receptor (Homo sapiens, UniProt P25021). It counts as functional, cell-based.
In experiment [3] the target is T1, Gamma-aminobutyric acid receptor subunit alpha-1. It is filed as functional.
For experiment [4], the target named is T3, Alpha-1A adrenergic receptor (Homo sapiens, UniProt P35348).
T3 sequence (P35348 whole entry): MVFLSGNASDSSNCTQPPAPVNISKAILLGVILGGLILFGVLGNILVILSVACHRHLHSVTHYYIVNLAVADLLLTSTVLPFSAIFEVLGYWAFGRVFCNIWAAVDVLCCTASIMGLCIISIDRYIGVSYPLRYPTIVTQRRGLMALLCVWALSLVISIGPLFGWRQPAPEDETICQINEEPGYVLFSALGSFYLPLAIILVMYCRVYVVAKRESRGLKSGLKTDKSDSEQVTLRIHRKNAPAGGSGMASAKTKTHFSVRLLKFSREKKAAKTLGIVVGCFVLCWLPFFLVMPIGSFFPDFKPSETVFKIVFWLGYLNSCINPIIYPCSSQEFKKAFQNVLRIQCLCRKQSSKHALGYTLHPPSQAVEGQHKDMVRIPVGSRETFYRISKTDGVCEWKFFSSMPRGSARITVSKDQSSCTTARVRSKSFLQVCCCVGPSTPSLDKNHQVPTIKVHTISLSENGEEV
It counts as functional, cell-based.

In experiment [5] the target is Growth hormone secretagogue receptor type 1 (Homo sapiens, UniProt Q92847).
The target in another experiment is Vasopressin V1a receptor (Homo sapiens, UniProt P37288).
Another experiment deals with Vasopressin V2 receptor (Homo sapiens, UniProt P30518).
Experiment [6] addresses T4, 5-hydroxytryptamine receptor 2A (Homo sapiens, UniProt P28223). It counts as functional, cell-based.
Experiment [7] concerns the target T4, 5-hydroxytryptamine receptor 2A. It counts as functional, cell-based. The source holds these as a separate data set.
The target of experiment [8] is T5, Muscarinic acetylcholine receptor M1 (Homo sapiens, UniProt P11229).
T5 sequence (P11229 whole entry): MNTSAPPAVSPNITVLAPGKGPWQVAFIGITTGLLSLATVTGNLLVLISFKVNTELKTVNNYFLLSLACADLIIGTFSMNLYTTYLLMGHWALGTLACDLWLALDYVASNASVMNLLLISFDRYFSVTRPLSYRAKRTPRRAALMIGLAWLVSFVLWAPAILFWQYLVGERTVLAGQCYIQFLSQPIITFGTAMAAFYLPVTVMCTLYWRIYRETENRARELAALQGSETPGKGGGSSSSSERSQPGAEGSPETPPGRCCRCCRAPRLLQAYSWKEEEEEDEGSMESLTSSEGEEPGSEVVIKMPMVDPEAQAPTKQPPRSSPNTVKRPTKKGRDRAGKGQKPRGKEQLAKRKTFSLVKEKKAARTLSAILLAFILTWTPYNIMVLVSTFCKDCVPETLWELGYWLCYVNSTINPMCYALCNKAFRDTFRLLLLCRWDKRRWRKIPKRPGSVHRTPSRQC
It counts as functional, cell-based.

Experiment [9] addresses T5, Muscarinic acetylcholine receptor M1. It counts as functional, cell-based. This is another data set of the same source.
Note: assay procedure not described here.

T4 sequence (P28223 whole entry): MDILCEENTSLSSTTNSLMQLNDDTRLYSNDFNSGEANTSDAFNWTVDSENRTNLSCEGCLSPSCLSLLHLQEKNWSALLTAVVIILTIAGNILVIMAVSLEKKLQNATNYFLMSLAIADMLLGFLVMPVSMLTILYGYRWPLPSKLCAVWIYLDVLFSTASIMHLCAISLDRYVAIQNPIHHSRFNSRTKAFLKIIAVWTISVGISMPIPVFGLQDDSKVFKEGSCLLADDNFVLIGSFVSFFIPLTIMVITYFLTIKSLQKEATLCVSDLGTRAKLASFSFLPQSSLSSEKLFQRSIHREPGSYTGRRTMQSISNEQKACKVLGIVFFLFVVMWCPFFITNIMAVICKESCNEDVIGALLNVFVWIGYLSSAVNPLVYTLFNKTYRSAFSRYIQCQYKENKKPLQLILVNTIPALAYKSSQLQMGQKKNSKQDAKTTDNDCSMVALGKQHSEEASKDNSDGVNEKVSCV
Growth hormone secretagogue receptor type 1, sequence (Q92847 whole entry): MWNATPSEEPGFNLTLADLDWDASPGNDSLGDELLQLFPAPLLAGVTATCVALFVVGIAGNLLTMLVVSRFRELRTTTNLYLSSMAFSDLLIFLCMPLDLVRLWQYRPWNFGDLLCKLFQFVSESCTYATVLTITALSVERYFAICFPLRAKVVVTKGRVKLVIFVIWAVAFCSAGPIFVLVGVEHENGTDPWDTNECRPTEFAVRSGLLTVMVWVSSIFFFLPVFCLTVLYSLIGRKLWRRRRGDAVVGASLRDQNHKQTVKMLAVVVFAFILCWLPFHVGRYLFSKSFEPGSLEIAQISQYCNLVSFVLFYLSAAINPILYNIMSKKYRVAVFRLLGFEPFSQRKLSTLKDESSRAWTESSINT
Histamine H2 receptor, sequence (P25021 whole entry): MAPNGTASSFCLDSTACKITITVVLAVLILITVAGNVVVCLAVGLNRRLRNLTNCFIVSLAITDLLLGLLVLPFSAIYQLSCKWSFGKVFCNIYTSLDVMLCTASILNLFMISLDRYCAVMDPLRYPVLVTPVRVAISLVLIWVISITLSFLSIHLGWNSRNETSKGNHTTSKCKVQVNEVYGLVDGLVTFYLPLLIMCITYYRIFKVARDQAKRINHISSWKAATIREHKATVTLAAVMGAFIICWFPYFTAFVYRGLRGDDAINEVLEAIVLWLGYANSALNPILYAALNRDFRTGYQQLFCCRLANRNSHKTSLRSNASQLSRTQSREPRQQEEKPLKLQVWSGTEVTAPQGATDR
Vasopressin V1a receptor, sequence (P37288 whole entry): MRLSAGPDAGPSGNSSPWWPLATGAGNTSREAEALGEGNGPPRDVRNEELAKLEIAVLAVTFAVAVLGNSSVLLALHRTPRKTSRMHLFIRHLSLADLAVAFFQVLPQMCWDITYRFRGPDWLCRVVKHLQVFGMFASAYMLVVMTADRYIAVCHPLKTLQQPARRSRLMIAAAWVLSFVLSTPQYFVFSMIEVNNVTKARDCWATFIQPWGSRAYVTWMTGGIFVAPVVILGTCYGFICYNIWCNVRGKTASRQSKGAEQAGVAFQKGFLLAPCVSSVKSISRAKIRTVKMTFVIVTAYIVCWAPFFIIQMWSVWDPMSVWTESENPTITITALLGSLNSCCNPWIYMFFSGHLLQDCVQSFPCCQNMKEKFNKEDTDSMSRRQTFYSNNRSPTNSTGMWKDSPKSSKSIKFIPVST
T1 sequence (P62813 whole entry): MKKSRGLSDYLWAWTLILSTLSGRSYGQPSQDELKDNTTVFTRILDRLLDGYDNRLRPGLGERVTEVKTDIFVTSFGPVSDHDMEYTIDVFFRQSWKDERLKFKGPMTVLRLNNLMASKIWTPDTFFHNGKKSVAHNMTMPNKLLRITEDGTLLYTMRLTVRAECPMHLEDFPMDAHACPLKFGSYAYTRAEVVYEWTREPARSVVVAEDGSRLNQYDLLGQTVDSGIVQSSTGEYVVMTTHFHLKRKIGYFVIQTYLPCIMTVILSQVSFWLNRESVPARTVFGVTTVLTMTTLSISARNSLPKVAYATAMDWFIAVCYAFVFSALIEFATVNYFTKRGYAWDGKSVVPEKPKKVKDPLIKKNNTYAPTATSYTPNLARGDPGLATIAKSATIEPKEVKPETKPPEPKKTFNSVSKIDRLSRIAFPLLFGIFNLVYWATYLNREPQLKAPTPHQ
Vasopressin V2 receptor, sequence (P30518 whole entry): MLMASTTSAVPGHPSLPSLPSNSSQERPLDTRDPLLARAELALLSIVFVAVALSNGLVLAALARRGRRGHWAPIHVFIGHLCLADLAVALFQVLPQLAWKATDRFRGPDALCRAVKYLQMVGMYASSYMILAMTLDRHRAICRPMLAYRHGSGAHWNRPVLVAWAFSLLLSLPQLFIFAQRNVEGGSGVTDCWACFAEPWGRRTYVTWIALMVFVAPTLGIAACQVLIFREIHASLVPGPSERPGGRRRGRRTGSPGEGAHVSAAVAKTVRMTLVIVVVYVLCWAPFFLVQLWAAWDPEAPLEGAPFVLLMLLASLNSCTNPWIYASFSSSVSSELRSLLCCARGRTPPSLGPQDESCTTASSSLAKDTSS

On to `CC(=O)OC1CN2CCC1CC2` (stereo unspecified) [ACECLIDINE], for which the AC50 in experiment [1] and in experiment [2] was more than 30 µM throughout.
On to `CC1=C(/C=C/C(C)=C\C=C\C(C)=C\C(=O)O)C(C)(C)CCC1` [ALITRETINOIN], for which the AC50 in experiment [1] and in experiment [2] was more than 30 µM each time.
Regarding `N=C(N)NC(=O)c1nc(Cl)c(N)nc1N` [AMILORIDE], the AC50 (at Histamine H2 receptor; in [1]; in experiment [2]; in experiment [3]; in experiment [4]; in experiment [5]) was more than 30 µM throughout. The AC50 at Vasopressin V1a receptor and at Vasopressin V2 receptor was more than 30 µM each time.
Turning to `CC(=O)Nc1ccc(/C=N/NC(N)=S)cc1` [AMITHIOZONE], the AC50 in experiment [1] and in experiment [2] was more than 30 µM in each case.
As for `COc1ccc(-c2cc(=S)ss2)cc1` [ANETHOLTRITHION], the AC50 at Histamine H2 receptor is more than 30 µM; in experiment [6] it was more than 30 µM; in experiment [3] it was more than 30 µM; in [4], more than 30 µM; in [5], more than 30 µM; on Vasopressin V1a receptor, 8.7 µM. Also, the AC50 (in experiment [7]; at Vasopressin V2 receptor) was more than 30 µM throughout.
As to `Cn1c(CCCC(=O)O)nc2cc(N(CCCl)CCCl)ccc21` [BENDAMUSTINE], the AC50 in experiment [8], in [1], in [9] and in [2] was more than 30 µM throughout.
For `O=C(OOC(=O)c1ccccc1)c1ccccc1` [BENZOYL PEROXIDE], the AC50 in experiment [8], in [1], in experiment [9] and in experiment [2] was more than 30 µM in each case.
Turning to `C[C@]12CCC(=O)C=C1C=C[C@@H]1[C@@H]2CC[C@@]2(C)[C@H]1CC[C@@]21CCC(=O)O1` [CANRENONE], the AC50 (at Histamine H2 receptor; in experiment [6]; in [3]; in [4]; in experiment [5]; on Vasopressin V1a receptor) was more than 30 µM throughout. In addition, the AC50 (in experiment [7]; at Vasopressin V2 receptor) was more than 30 µM each time.
With `CN(C)CCC(O)(c1ccccc1)c1ccccc1Cl` (stereo unspecified) [CHLOPHEDIANOL], the AC50 on Histamine H2 receptor was more than 10 µM; in experiment [6] it was more than 10 µM; in experiment [3] it was more than 10 µM; in [5] it was more than 10 µM; at Vasopressin V1a receptor, more than 10 µM; in experiment [7], 4.4 µM. This compound had an AC50 at Vasopressin V2 receptor of more than 10 µM.
As for `C[C@]12C=CC(=O)C=C1C(Cl)=C[C@@H]1[C@@H]2[C@@H](O)C[C@@]2(C)[C@H]1CC[C@]2(O)C(=O)CO` [CLOPREDNOL], the AC50 (on Histamine H2 receptor; in [6]; in experiment [3]; in experiment [5]; at Vasopressin V1a receptor; in experiment [7]) was more than 30 µM throughout. Moreover, the AC50 on Vasopressin V2 receptor was more than 30 µM.
For the compound `COc1cccc2c1C(=O)c1c(O)c3c(c(O)c1C2=O)C[C@@](O)(C(=O)CO)C[C@@H]3O[C@H]1C[C@H](N)[C@H](O)[C@H](C)O1` [DOXORUBICIN], the AC50 on Histamine H2 receptor is more than 10 µM; in experiment [1], more than 30 µM; in experiment [2], more than 30 µM; in [3] it was more than 10 µM; in [5], more than 30 µM; at Vasopressin V1a receptor, more than 30 µM. The compound further had an AC50 on Vasopressin V2 receptor of more than 30 µM.
In the case of `C[C@]12CCC(=O)C=C1[C@@H]1C[C@@H]1[C@H]1[C@@H]3[C@@H]4C[C@@H]4[C@@]4(CCC(=O)O4)[C@@]3(C)CC[C@@H]12` [DROSPIRENONE], the AC50 (on Histamine H2 receptor; in experiment [6]; in experiment [3]; in [4]; in experiment [5]; at Vasopressin V1a receptor) was more than 30 µM in each case. Also, the AC50 in [7] is 24 µM; on Vasopressin V2 receptor, more than 30 µM.
Regarding `COc1cccc2c1C(=O)c1c(O)c3c(c(O)c1C2=O)C[C@@](O)(C(=O)CO)C[C@@H]3O[C@H]1C[C@H](N)[C@@H](O)[C@H](C)O1` [EPIRUBICIN], the AC50 in experiment [1] and in [2] was more than 30 µM in each case.
For `CC(C)(Oc1ccc(Cl)cc1)C(=O)OCCOC(=O)c1cccnc1` [ETOFIBRATE], the AC50 (on Histamine H2 receptor; in [6]; in experiment [3]; in experiment [4]; in experiment [5]; on Vasopressin V1a receptor) was more than 30 µM throughout. For the same compound, the AC50 (in [7]; at Vasopressin V2 receptor) was more than 30 µM in each case.
In the case of `CC(C)Cc1ccc(C(C)C(=O)OCc2ccccn2)cc1` (stereo unspecified) [IBUPROFEN PICONOL], the AC50 in [8] was more than 30 µM; in experiment [1], more than 30 µM; in experiment [9] it was more than 10 µM; in [2], more than 30 µM.
As for `CC1=C(/C=C/C(C)=C/C=C/C(C)=C\C(=O)O)C(C)(C)CCC1` [ISOTRETINOIN], the AC50 in [1] and in [2] was more than 30 µM in each case.
For `CC(C)NC[C@H](O)COc1ccc(CCOCC2CC2)cc1` [LEVOBETAXOLOL], the AC50 in [8], in experiment [1], in experiment [9] and in [2] was more than 30 µM throughout.
Regarding `Cc1cccc(C)c1NC(=O)CN(CC(=O)O)CC(=O)O` [LIDOFENIN], the AC50 in experiment [8], in experiment [1], in [9] and in experiment [2] was more than 30 µM in each case.
As to `CSCC[C@H](N)C(=O)O` [METHIONINE], the AC50 in experiment [1] and in [2] was more than 30 µM in each case.
Consider `C[C@]12C=CC(=O)C=C1CC[C@@H]1[C@@H]2[C@@H](O)C[C@@]2(C)[C@H]1CC[C@]2(O)C(=O)CO` [PREDNISOLONE], for which the AC50 is more than 10 µM at Histamine H2 receptor; more than 10 µM in experiment [3]; more than 30 µM in [4]; more than 30 µM in [5]; more than 30 µM on Vasopressin V1a receptor; more than 30 µM at Vasopressin V2 receptor.
With `CCC(=O)c1ccc2c(c1)N(CC(C)N(C)C)c1ccccc1S2` (stereo unspecified) [PROPIOMAZINE], the AC50 on Histamine H2 receptor is more than 10 µM; in [6] it was more than 10 µM; in [3], more than 10 µM; in [5], more than 10 µM; on Vasopressin V1a receptor, more than 10 µM; in experiment [7], 1 µM. The AC50 on Vasopressin V2 receptor was more than 10 µM.
Take `CN(C)[C@@H]1C(O)=C(C(=O)NCN2CCCC2)C(=O)[C@@]2(O)C(O)=C3C(=O)c4c(O)cccc4[C@@](C)(O)[C@H]3C[C@@H]12` [ROLITETRACYCLINE]: the concentration at half-maximal activity (AC50) at Histamine H2 receptor was more than 10 µM; in experiment [6] it was more than 30 µM; in experiment [3], more than 10 µM; in experiment [4], more than 30 µM; in experiment [5] it was more than 10 µM; at Vasopressin V1a receptor, more than 10 µM. In addition, the AC50 in [7] is more than 30 µM; at Vasopressin V2 receptor, more than 10 µM.
As for `CC1(C)O[C@@H]2C[C@H]3[C@@H]4CCC5=CC(=O)C=C[C@]5(C)[C@@]4(F)[C@@H](O)C[C@]3(C)[C@]2(C(=O)CO)O1` [TRIAMCINOLONE ACETONIDE], the AC50 (at Histamine H2 receptor; in experiment [3]; in [5]; at Vasopressin V2 receptor) was more than 30 µM in each case.
In the case of `Oc1cc(Cl)ccc1Oc1ccc(Cl)cc1Cl` [TRICLOSAN], the AC50 (on Histamine H2 receptor; in experiment [6]; in [3]; in experiment [4]; in experiment [5]; on Vasopressin V1a receptor) was more than 30 µM each time. Besides, the concentration at half-maximal activity (AC50) (in experiment [7]; on Vasopressin V2 receptor) was more than 30 µM throughout.

The AC50 is the midpoint of the concentration-response curve, whichever way the signal moves. Higher therefore signals weaker potency.
